Data published in patent US10953027B2, “Active agents and methods of their use for the treatment of metabolic disorders and nonalcoholic fatty liver disease” (Flagship Pioneering Innovations V, Inc., priority 2018, dated 2021).

Key:
[1] = tested on: Primary human subcutaneous adipocytes; assay: Glucose uptake in human subcutaneous adipocytes, insulin sensitive model; format: cell-based
Experimental: Primary human subcutaneous adipocytes (Zen Bio, Research Triangle Park, N.C.) were differentiated for two weeks prior to treatment. Cells were treated with indicated compounds diluted in (dimethyl-sulfoxide) DMSO in serum free medium for 24 hours in triplicate. After 24 hours, media was exchanged for assay buffer and the compounds were added again but in the presence of approximately 1 nM insulin. Glucose uptake was initiated with the addition of a cocktail containing 2-deoxyglucose and ^3H-2-deoxyglucose and allowed to incubate for 2 hours. Cells were washed, lysed and glucose uptake was measured as counts per well. As an assay control, 100 nM of insulin was used during the 2 hours of glucose uptake. […] Statistical changes in glucose uptake were determined by way ANOVA and compared to DMSO.

[2] = tested on: Primary human subcutaneous adipocytes; assay: Glucose uptake in human subcutaneous adipocytes, insulin resistant model; format: cell-based
Experimental: As described above, primary human subcutaneous adipocytes were differentiated for two weeks prior to treatment. To induce an insulin resistant state, cells were treated in serum free Dulbecco's Modified Eagle Medium (high glucose) and […] for 24 hours. Cells were simultaneously treated with compounds diluted in DMSO for 24 hours. As described above, after 24 hours, media was exchanged for assay buffer and the compounds were added again but in the presence of approximately 1 nM insulin. Cells were washed and lysed after 2 hours and glucose uptake was measured. […] Statistical changes in glucose uptake were determined by way ANOVA and compared to DMSO.

AhR = AhR activation in Caco-2 cells through CYP1A1 mRNA expression
Experimental: Caco-2 cells from American Type Culture Collection (ATCC) were plated in a sterile tissue culture treated 96-well plate (ThermoFisher) at […] per well, and grown overnight at 37° C., 5% CO2 in DMEM complete (Gibco) in order to achieve confluence. After the incubation medium was aspirated from the Caco-2 monolayers, tissues were then washed with 200 μL of warmed PBS solution, and subsequently 190 μL of pre-warmed growth medium was added to each well. Compounds of interest were diluted at a 20× concentration in growth medium containing 2% DMSO, and 10 μL of compound solutions were added to respective wells in triplicate. Compounds where incubated overnight at 37° C., 5% CO2. 2-(1′H-indole-3′-carbonyl)-thiazole-4-carboxylic acid methyl ester (ITE) was used as the positive control for AhR activation at 1 and 100 μM concentrations. At the end of the incubation, medium was aspirated off of the Caco-2 cells, and washed with 100 μL of cold PBS solution. RNA was extracted via the TaqMan™ Gene Expression Cells-to-CT™ Kit (ThermoFisher) according to the manufacturers protocol. The QuantStudio 6 Flex (Applied Biosciences) was used to analyze mRNA levels of CYP1A1 using GAPDH as the endogenous control. TaqMan™ probe sets for both genes were acquired from ThermoFisher. Samples were run in triplicate and data was analyzed using the QuantStudio software and reported as linear (Table 1) and log 2(ΔΔCT) values. Statistical analysis was performed using a two-tailed t-test comparing CYP1A1 levels in the presence of each individual compound to the vehicle negative control.

Caco-2 colonocytes = assay: Human Caco-2 barrier integrity assay (TEER); format: cell-based; conditions: 48 hours
Experimental: Caco-2 colonocytes were maintained at 37° C. and 5% CO2 in Dulbecco's Modified Eagle Medium (DMEM) and supplemented with 10% FBS, 1% NEAA, 1% penicillin-streptomycin. At 70-80% confluency, cells were trypsinized and seeded in 0.4 cm^2 transwell collagen I coated membranes with supplemented DMEM in both apical and basolateral compartments. Cells were seeded at a density of 200,000 cells per well and maintained for 10 days to form a polarized barrier with a TransEpithelial Electrial Resistance (TEER) reading above 1000Ω. On the first day of the assay, initial TEER readings were taken and cytokines were added to the basolateral media (50 ng/mL TNFα, 25 ng/mL IFNγ and 10 ng/mL IL-1β) to reduce barrier integrity while compounds diluted in (dimethylsulfoxide) DMSO were added to the apical media in triplicate. After 48 hours, TEER readings were taken again and viability was measured by CellTiter 96® AQueous One Solution Cell Proliferation Assay (Promega). The percent change in TEER over the 48 hours was determined and normalized to the 0.1% DMSO control (Table 6).

Mouse 3T3-L1 cells = assay: Mouse adipocyte lipolysis assay; format: cell-based; conditions: 24 hours
Experimental: Once the cells became confluent, they were seeded into a tissue culture treated 96 well plate. […] After 14 days of differentiation, cells were treated with compounds of interest. After 24 hours post-treatment, the cell viability was assessed using CellTiter-Glo Luminescent Cell Viability Assay from Promega, and lipolysis was determined using Lipolysis Assay Kit from ZenBio.

Mouse myocyte = Mouse myocyte lipolysis assay; format: cell-based
naïve CD4+ T cells = assay: Human regulatory T cell differentiation assay; format: cell-based; conditions: 6 days
Outline: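 Naïve CD4+ T cells from healthy-donor PBMCs cultured 6 days in OpTmizer medium with 5 ng/ml TGF-β, 100 U/ml IL-2 and CD3/CD28/CD2 activator, with or without compound. Tregs (live CD4+CD3+CD25+FOXP3+, lineage-negative) measured by flow cytometry and expressed as % of total CD4+ T cells.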

[3] = tested on: Human Peripheral Blood Monocytes (PBMCs); assay: Cytokine release from human PBMCs; format: cell-based; conditions: 100 μM, LPS, 24 hours
Experimental: Human donor blood (8 mL) was collected in sodium citrate CPT tubes and centrifuged at 1,600×g for 20 minutes at room temperature. […] PBMCs samples were centrifuged at 400×g for 10 minutes at 10° C. […] PBMCs were filtered through a 70 micron mesh to remove any cellular debris. […] PBMCs in a 96-well plate were rested for 30 minutes in a 37° C., 5% CO2 incubator, then subsequently treated with 10 μl of indicated compound. After 2 hours 10 μL of LPS (O111:B4) 1 mg/mL was added to test wells. After 24 hours of incubation at 37° C., 5% CO2, 100 μL of cell supernatant was collected and transferred to a 96-well plate (non-tissue treated, flat bottom). The plate was centrifuged at 350×g for 5 minutes at room temperature, and then the clear supernatant transferred to a new 96-well plate (non-tissue treated, flat bottom). The remaining cells were tested for viability using CellTiter-Glo® Luminescent Cell Viability Assay (Promega). The supernatant was analyzed for TNFα, IL-6 and IL-1β (kit LXSAHM-03; R&D Systems), using Luminex Immunoassay Technology (MAGPIX System). Cytokine levels of LPS treated DMSO control samples were set to 100%, and compound treated samples were expressed relative to this (Table 13).

O=C(O[C@@H]1Cc2c(O)cc(O)cc2O[C@@H]1c1cc(O)c(O)c(O)c1)c1cc(O)c(O)c(O)c1 [EGCG, epigallocatechin gallate]
Insulin Sensitive % DMSO (glucose uptake) ([1]; 100 nM): = (50%> ≤110%: =) | Insulin Sensitive % DMSO (glucose uptake) ([1]; 10 μM): = (50%> ≤110%: =) | Insulin Resistant % DMSO (glucose uptake) ([2]; 100 nM): + (110%> ≤140%: +) | Insulin Resistant % DMSO (glucose uptake) ([2]; 10 μM): = (50%> ≤110%: =) | Average CYP1A1 mRNA levels (AhR; Conc. 0.1 μM): − (− = +2-fold Vehicle) | Average CYP1A1 mRNA levels (AhR; Conc. 1.0 μM): − (− = +2-fold Vehicle) | % Change in TEER from DMSO (Caco-2 colonocytes; 100 nM + cytokines): − (≤125%: −) | % Change in TEER from DMSO (Caco-2 colonocytes; 1 μM + cytokines): − (≤125%: −) | Lipolysis Free Fatty Acids % DMSO (Mouse 3T3-L1 cells; 100 nM): ++ (50> ≤70%: ++) | Lipolysis Glycerol % change (Mouse 3T3-L1 cells; 100 nM): + (70%> ≤90%: +) | Lipolysis Free Fatty Acids % DMSO (Mouse 3T3-L1 cells; 1 μM): ++ (50> ≤70%: ++) | Lipolysis Glycerol % change (Mouse 3T3-L1 cells; 1 μM): + (70%> ≤90%: +) | Free glycerol % DMSO (Mouse myocyte; 100 nM): + (70%> <90%: +) | Free glycerol % DMSO (Mouse myocyte; 1 μM): + (70%> <90%: +) | Cell viability % DMSO (naïve CD4+ T cells; 100 nM): = (90%≥ ≤110%: =) | Treg induction % DMSO (naïve CD4+ T cells; 100 nM): = (90%≥ ≤110%: =) | Cell viability % DMSO (naïve CD4+ T cells; 1 uM): = (90%≥ ≤110%: =) | Treg induction % DMSO (naïve CD4+ T cells; 1 uM): = (90%≥ ≤110%: =)

O=c1c(O)c(-c2ccc(O)c(O)c2)oc2cc(O)cc(O)c12 [Quercetin, quercetin]
Insulin Sensitive % DMSO (glucose uptake) ([1]; 100 nM): = (50%> ≤110%: =) | Insulin Sensitive % DMSO (glucose uptake) ([1]; 1 μM): = (50%> ≤110%: =) | Insulin Resistant % DMSO (glucose uptake) ([2]; 100 nM): = (50%> ≤110%: =) | Insulin Resistant % DMSO (glucose uptake) ([2]; 1 μM): = (50%> ≤110%: =) | % Change in TEER from DMSO (Caco-2 colonocytes; 1 μM + cytokines): + (125%> ≤150%: +) | % Change in TEER from DMSO (Caco-2 colonocytes; 100 μM + cytokines): − (≤125%: −) | activity at 0.1 µM (Mouse 3T3-L1 cells; Mus musculus, 3T3-L1, 100 nM, read-out: Lipolysis Free Fatty Acids % DMSO): 50 to 70% | activity at 1 µM (Mouse 3T3-L1 cells; Mus musculus, 3T3-L1, 1 μM, read-out: Lipolysis Free Fatty Acids % DMSO): 50 to 70% | activity at 0.1 µM (Mouse myocyte; Mus musculus, 100 nM, read-out: Free glycerol % DMSO): 70 to 90% | activity at 1 µM (Mouse myocyte; Mus musculus, 1 μM, read-out: Free glycerol % DMSO): 70 to 90% | Cell viability % DMSO (naïve CD4+ T cells; 100 nM): = (90%≥ ≤110%: =) | Cell viability % DMSO (naïve CD4+ T cells; 1 uM): = (90%≥ ≤110%: =) | activity at 0.1 µM (naïve CD4+ T cells; Homo sapiens, CD4+ T, 144 h, 100 nM, read-out: Treg induction % DMSO): 90 to 110% | activity at 1 µM (naïve CD4+ T cells; Homo sapiens, CD4+ T, 144 h, 1 uM, read-out: Treg induction % DMSO): 90 to 110% | IL6 % DMSO control [3]: + ((+) 50%≥ <90% DMSO) | ILβ % DMSO control [3]: + ((+) 50%≥ <90% DMSO) | TNFα % of DMSO control [3]: + ((+) 50%≥ <90% DMSO)

CC(=O)O [Acetate, acetic acid]
Insulin Sensitive % DMSO (glucose uptake) ([1]; 1 mM): = (50%> ≤110%: =) | Insulin Sensitive % DMSO (glucose uptake) ([1]; 3 mM): = (50%> ≤110%: =) | Insulin Resistant % DMSO (glucose uptake) ([2]; 1 mM): = (50%> ≤110%: =) | Insulin Resistant % DMSO (glucose uptake) ([2]; 3 mM): = (50%> ≤110%: =) | % Change in TEER from DMSO (Caco-2 colonocytes; 1 mM + cytokines): − (≤125%: −) | % Change in TEER from DMSO (Caco-2 colonocytes; 3 mM + cytokines): − (≤125%: −) | activity at 1000 µM (Mouse 3T3-L1 cells; Mus musculus, 3T3-L1, 1 mM, read-out: Lipolysis Free Fatty Acids % DMSO): 50 to 70% | activity at 3000 µM (Mouse 3T3-L1 cells; Mus musculus, 3T3-L1, 3 mM, read-out: Lipolysis Free Fatty Acids % DMSO): 50 to 70% | activity at 1000 µM (Mouse myocyte; Mus musculus, 1 mM, read-out: Free glycerol % DMSO): 90 to 100% | activity at 3000 µM (Mouse myocyte; Mus musculus, 3 mM, read-out: Free glycerol % DMSO): 90 to 100% | Cell viability % DMSO (naïve CD4+ T cells; 1 mM): = (90%≥ ≤110%: =) | Cell viability % DMSO (naïve CD4+ T cells; 3 mM): = (90%≥ ≤110%: =) | activity at 1000 µM (naïve CD4+ T cells; Homo sapiens, CD4+ T, 144 h, 1 mM, read-out: Treg induction % DMSO): 110 to 130% | activity at 3000 µM (naïve CD4+ T cells; Homo sapiens, CD4+ T, 144 h, 3 mM, read-out: Treg induction % DMSO): > 130% | IL6 % DMSO control [3]: = ((=) 90%≥ <110% DMSO) | ILβ % DMSO control [3]: = ((=) 90%≥ <110% DMSO) | TNFα % of DMSO control [3]: = ((=) 90%≥ <110% DMSO)

Cn1cc(C[C@H](N)C(=O)O)c2ccccc21 [1-methylindole-3-alanine]
Average CYP1A1 mRNA levels (AhR; Conc. 10.0 μM): + (+ = >2-fold Vehicle) | Average CYP1A1 mRNA levels (AhR; Conc. 100.0 μM): +++ (+++ = >10-fold Vehicle)

O=C(O)c1ccccc1 [Benzoic acid]
Average CYP1A1 mRNA levels (AhR; Conc. 10.0 μM): + (+ = >2-fold Vehicle) | Average CYP1A1 mRNA levels (AhR; Conc. 100.0 μM): + (+ = >2-fold Vehicle)

CC(O)CCO (centres unmarked) [butanediol, 1,3-butanediol]
Average CYP1A1 mRNA levels (AhR; Conc. 500.0 μM): − (− = +2-fold Vehicle) | % Change in TEER from DMSO (Caco-2 colonocytes; 100 μM + cytokines): − (≤125%: −) | % Change in TEER from DMSO (Caco-2 colonocytes; 0.5 mM + cytokines): − (≤125%: −) | IL6 % DMSO control [3]: = ((=) 90%≥ <110% DMSO) | ILβ % DMSO control [3]: = ((=) 90%≥ <110% DMSO) | TNFα % of DMSO control [3]: = ((=) 90%≥ <110% DMSO)

c1ccc2[nH]ccc2c1 [indole]
Average CYP1A1 mRNA levels (AhR; Conc. 1000.0 μM): + (+ = >2-fold Vehicle)

OCc1c[nH]c2ccccc12 [indole-3-carbinol]
Average CYP1A1 mRNA levels (AhR; Conc. 1000.0 μM): + (+ = >2-fold Vehicle)

COC(=O)c1csc(C(=O)c2c[nH]c3ccccc23)n1 [ITE, 2-(1′H-indole-3′-carbonyl)-thiazole-4-carboxylic acid methyl ester]
Average CYP1A1 mRNA levels (AhR; Conc. 1.0 μM): +++ (+++ = >10-fold Vehicle)
